Literature values, collected in patent US20060134230A1, “Weight loss composition and formulation” (priority 2004, published 2006).

Legend:
fatty acid synthase = fatty acid synthase (Homo sapiens, UniProt P49327)
3T3-L1 = 3T3-L1 preadipocyte
[1] = system: glucose transport at the brush border of the small intestine; settings: in vivo
[2] = system: oxidative phosphorylation
lipases = settings: in vivo

fatty acid synthase, sequence (P49327 whole entry, species assumed): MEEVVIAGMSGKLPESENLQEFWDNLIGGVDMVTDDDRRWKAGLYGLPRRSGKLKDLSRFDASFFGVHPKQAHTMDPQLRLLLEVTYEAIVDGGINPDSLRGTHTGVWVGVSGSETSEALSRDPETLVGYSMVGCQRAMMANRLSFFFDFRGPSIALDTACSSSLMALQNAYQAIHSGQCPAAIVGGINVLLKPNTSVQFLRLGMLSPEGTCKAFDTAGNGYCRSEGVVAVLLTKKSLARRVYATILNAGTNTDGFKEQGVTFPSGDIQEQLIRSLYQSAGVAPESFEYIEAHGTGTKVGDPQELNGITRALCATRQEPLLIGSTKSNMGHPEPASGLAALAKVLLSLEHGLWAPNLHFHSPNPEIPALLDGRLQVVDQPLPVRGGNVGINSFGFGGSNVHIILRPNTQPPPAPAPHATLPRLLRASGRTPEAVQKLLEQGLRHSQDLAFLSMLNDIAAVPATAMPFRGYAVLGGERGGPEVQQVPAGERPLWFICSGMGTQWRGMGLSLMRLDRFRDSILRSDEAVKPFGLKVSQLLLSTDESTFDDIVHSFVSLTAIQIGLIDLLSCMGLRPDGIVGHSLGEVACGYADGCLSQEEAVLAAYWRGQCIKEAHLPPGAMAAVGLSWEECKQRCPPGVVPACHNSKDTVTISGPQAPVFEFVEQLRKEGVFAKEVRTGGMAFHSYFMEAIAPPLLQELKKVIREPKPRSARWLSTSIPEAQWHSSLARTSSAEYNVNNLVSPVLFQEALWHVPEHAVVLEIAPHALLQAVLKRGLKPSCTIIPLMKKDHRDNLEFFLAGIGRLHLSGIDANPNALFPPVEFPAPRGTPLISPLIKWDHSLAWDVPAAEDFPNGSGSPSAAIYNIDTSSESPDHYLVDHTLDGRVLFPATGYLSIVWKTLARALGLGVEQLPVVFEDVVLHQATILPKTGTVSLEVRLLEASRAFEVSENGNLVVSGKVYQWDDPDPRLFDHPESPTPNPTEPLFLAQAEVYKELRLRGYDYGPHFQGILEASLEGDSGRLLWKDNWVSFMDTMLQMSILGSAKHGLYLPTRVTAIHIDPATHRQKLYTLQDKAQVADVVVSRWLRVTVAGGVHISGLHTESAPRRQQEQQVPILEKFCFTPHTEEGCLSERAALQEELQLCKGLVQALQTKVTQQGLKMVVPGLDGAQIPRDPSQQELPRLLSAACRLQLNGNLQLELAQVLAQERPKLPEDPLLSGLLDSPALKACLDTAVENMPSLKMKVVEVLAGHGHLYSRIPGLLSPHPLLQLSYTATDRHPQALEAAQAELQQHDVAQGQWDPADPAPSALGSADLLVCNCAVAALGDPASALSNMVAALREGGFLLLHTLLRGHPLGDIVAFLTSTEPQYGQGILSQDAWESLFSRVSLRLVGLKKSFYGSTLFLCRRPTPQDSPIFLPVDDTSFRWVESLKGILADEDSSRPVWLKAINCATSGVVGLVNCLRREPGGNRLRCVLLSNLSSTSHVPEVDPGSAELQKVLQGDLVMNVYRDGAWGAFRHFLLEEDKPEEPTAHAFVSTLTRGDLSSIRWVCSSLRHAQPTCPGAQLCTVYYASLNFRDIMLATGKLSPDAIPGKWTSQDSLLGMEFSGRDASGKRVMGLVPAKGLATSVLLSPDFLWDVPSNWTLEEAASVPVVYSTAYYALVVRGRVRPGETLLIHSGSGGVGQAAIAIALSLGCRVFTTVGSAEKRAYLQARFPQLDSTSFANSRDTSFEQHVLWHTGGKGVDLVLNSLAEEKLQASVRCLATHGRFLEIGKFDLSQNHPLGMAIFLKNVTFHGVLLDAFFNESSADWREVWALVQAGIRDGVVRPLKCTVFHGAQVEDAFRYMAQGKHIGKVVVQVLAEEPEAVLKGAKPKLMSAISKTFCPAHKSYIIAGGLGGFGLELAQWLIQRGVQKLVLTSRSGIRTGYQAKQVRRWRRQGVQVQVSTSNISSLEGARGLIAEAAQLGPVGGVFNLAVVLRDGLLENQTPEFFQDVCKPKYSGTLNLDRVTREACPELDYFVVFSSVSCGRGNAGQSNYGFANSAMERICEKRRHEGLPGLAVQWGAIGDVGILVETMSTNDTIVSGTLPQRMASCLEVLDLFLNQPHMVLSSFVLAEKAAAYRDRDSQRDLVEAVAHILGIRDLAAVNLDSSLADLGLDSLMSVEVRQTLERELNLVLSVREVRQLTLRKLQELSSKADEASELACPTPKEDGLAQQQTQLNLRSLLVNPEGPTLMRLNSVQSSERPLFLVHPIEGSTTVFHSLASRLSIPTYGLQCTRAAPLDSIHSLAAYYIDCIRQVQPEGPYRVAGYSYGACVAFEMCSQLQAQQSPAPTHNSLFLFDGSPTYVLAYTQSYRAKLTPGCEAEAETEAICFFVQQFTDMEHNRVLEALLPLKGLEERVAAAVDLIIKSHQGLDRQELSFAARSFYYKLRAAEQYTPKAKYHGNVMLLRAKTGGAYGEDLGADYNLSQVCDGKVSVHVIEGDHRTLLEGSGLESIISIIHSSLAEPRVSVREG

## Cc1cc(O)c2c(c1)C(=O)c1cc(O)cc(O)c1C2=O [emodin, 3-methyl-1,6,8-trihydroxy-anthraquinone]
Fatty acid synthase
  inhibition effect on fatty acid synthase: inhibition effect on fatty acid synthase, which is dose dependent
3T3-L1
  inhibition of differentiation of 3T3-L1: inhibition of differentiation of 3T3-L1

## CC1(C)CC[C@]2(C(=O)O)CC[C@]3(C)C(=CC[C@@H]4[C@@]5(C)CC[C@H](O)C(C)(C)[C@@H]5CC[C@]43C)[C@@H]2C1 [oleanic acid]
[1]
  glucose transport at the brush border of the small intestine: inhibiting glucose transport at the brush border of the small intestine
  transfer of glucose from the stomach to the small intestine: suppress the transfer of glucose from the stomach to the small intestine

## CC(C)(O)[C@@H]1Cc2cc3ccc(=O)oc3cc2O1 [marmesin]
[2]
  oxidative uncoupling: act as oxidative uncouplers

## CCCCCCCCCCC[C@@H](C[C@@H]1OC(=O)[C@H]1CCCCCC)OC(=O)[C@H](CC(C)C)NC=O [Xenical]
lipases
  dietary fat blocked from being absorbed: about 30%

## C=CC(C)(C)c1cc2cc3c(cc2oc1=O)O[C@H](C(C)(C)O)C3 [chalepin]
[2]
  oxidative uncoupling: act as oxidative uncouplers

## CC(C)=CCOc1c2occc2cc2ccc(=O)oc12 [imperatorin]
[2]
  oxidative uncoupling: act as oxidative uncouplers
